Assays:
Type in all cases: cell-based, human
[1] = tested on: MDA-MB-231 cell-derived mammospheres; assay: Mammosphere formation, MDA-MB-231-derived; details: PAA 0.05 and 0.1 mM, 7 days
Protocol: The mammospheres were cultured together with PAA (0.05 and 0.1 mM) or DMSO. MCF-7 and MDA-MBB-231 cells were treated with PAA and DMSO during the culture period of 7 days.
Human breast cancer cells, i.e., MCF-7 and MDA-MB-231, were commercially obtained from American Type Culture Collection (ATCC; Manassas, Va., USA). MCF-7 and MDA-MB-231 cells were cultured in Dulbecco's modified essential medium (DMEM; Hyclone, Logan, Utah, USA) containing 10% fetal bovine serum (FBS; Hyclone), 100 U/mL of penicillin, and 100 μg/mL of streptomycin (Hyclone). The MCF-7 and MDA-MB-231 cells were maintained at 37° C. in a 5% CO2-containing humidified incubator. The cells were plated at a density of 1×10^6 on a 10 cm petri dish. […]
At 7 days of culture, the cell culture plate was disposed on a scanner (Epson Perfection V700 PHOTO, Epson Korea, Co, Seoul, Korea) to obtain an 8 bit gray scale image of mammospheres. […] The background signal of the image was negated using a critical algorithm and the selected image was automatically counted. Regarding the mammosphere formation analysis, formation efficiency of mammospheres (MFE, %) was determined in accordance with the number of mammospheres per well/the total number of cells plated per well×100.

[2] = tested on: nuclear STAT3 proteins (phosphorylation); assay: Western blotting of mammosphere nuclear proteins, pStat3; details: MCF-7-derived mammospheres, compared to the control group
Protocol: The proteins isolated from mammospheres of PAA-treated MCF-7 were separated on 10% SDS-PAGE and transferred to a polyvinylidene difluoride membrane (Millipore, Bedford, Mass., USA). The membrane was blocked in 5% skim milk-containing PBS-Tween 20 (0.1%, v/v) for 30 minutes at room temperature. The blot was cultured at 4° C. in a blocking solution containing primary antibodies overnight. The used primary antibodies were as follows: Stat3, p65, Lamin B, and phospho-Stat3 (Cell Signaling, Beverly, Mass., USA). β-actin antibodies (Santa Cruz Biotechnology) were used as a loading control group. After washing with PBS-Tween 20 (0.1%, v/v), the blot was cultured in a horseradish peroxidase-conjugated secondary antibody and subjected to photosensitive treatment with a chemiluminescent detection kit (Santa Cruz Biotechnology).
In order to investigate cellular functions of PAA, STAT3 and NF-κB pathways were investigated in MCF-7-derived mammospheres subjected to treatment with PAA. As compared to the control group, PAA reduced phosphorylation of nuclear STAT3 proteins.

[3] = tested on: Caspase 3/7 activity in MDA-MB-231 cells; assay: Caspase-3/7 analysis (Caspase-Glo 3/7 kit); details: MDA-MB-231, 24 hours
Protocol: (FIGS. 1D, E and F) show effects of PAA on apoptosis of breast cancer cells. MDA-MB-231 cells were treated with PAA for 24 hours, and apoptotic cells were analyzed by FACS using an Annexin V-PI staining kit. Caspase 3/7 activity in MDA-MB-231 cells was analyzed using a Caspase-Gloss 3/7 kit. By fluorescent staining, apoptotic cells were analyzed and nuclei thereof were stained with Hoechst 33258 in breast cancers (magnified, 200×) (FIG. 1);
Cancer cells were treated with different concentrations of PAA for 24 hours. Caspase-3/7 activity was analyzed in accordance with the manufacturer's instructions regarding a Caspase-Glo 3/7 kit (Promega, Wis., USA). 100 μl of a Caspase-Glo 3/7 reagent was added to a 96-well for culturing cancer cells. The plate was covered with a plate sealer and cultured at room temperature for one hour, and Caspase-3/7 activity was measured using a plate-reading luminometer, GloMax® Explorer (Promega, Wis., USA).

MDA-MB-231 cells = assay: Clonogenicity assay (colony formation); details: MDA-MB-231, 7 days
Protocol: The dissociated 1,000 MDA-MB-231 cells were seeded on a 6-well plate and treated with marked concentrations of PAA and DMSO for 7 days. A representative image of colonies was recorded. Shown data is represented as a mean±SD in three independent tests. * means P<0.05, as compared to DMSO-treated control group;
MDA-MB-231 cells were seeded at a low density on a 6-well plate and treated with different concentrations of PAA in DMEM. After 24 hours, the medium was replaced with fresh medium and incubated for cell growth for 7 days. Grown colonies were counted.

MCF-7 cells = assay: Cell proliferation (MTS) analysis, MCF-7; details: MCF-7, 48 hours after PAA treatment
Protocol: (FIGS. 1A, B and C) show chemical structures of PAA and viability of MCF-7 and MDA-MB-231 cells depending on PAA. MCF-7 and MDA-MB-231 cells were treated with increasing concentrations of PAA for 48 hours. Anti-proliferation effects of PAA were measured by MTS analysis.
Proliferation rates of MCF-7 and MDA-MB-231 cells were measured using a CellTiter 96® aqueous one solution cell proliferation kit. MCF-7 and MDA-MB-231 cells were cultured in the presence of PAA (0.1, 0.2, 0.5, 1 and 2 mM) on a 96-well plate for 48 hours. In accordance with the manufacturer's protocol, absorbance at 490 nm was determined using a 96-well plate reader (Dynex Revelation, Dynex Ltd., Billingshurst, UK). All data was determined by measurement of three sets.
In order to investigate anti-proliferation effects of PAA in human breast cancer cell lines, i.e., MCF-7 and MDA-MB-231, the cancer cell lines were treated with different concentrations of PAA and then MTS analysis was conducted.

O=CCc1ccccc1 [PAA, phenylacetaldehyde]
number of primary mammospheres derived from MDA-MB-231 cells [1]: reduced
phosphorylation of nuclear STAT3 proteins [2]: reduced
activity of caspase 3/7 [3]: concentration-dependently induced
formation of colonies (MDA-MB-231 cells): concentration-dependently inhibited
PAA concentration at which growth of the cell line was concentration-dependently inhibited (MCF-7 cells): ≥ 200 μm
